What was measured:
CB2 = biological target: T1, CB2 (Mus musculus, UniProt P47936); assay: Radioligand competition binding, [3H]-CP55940, CB2-expressing HEK293 membranes
T1 construct: plasmids containing full coding region of mouse CB1 and CB2; expressed in transfected cells
Procedure: Stable CB1 and CB2 expressing HEK293 cell lines were generated using plasmids containing full coding region of mouse CB1 and CB2.
Fragments were amplified from total RNA of cell lines by reverse transcriptase-polymerase chain reaction (RT-PCR). Sequence was confirmed and the fragment was cloned into the EcoRI site of the pIRES2-eGFP-express vector. Cells were grown to approximately 80% confluence in 10 cm cell culture dishes, transfected with the cDNA pIRES-eGFP-vector containing the murine CB1 or CB2 receptor using LipofectAMINE™ 2000 reagent in the serum-free media Opti-MEM 1 according to the manufacturer's description. Cells were subject to FACS sorting 48 h after transfection and single cell sorted based on dsRed expression into 96-well plates. Of the dsRed expressing positive clones, 3 were validated for CB1 and CB2 protein expression by radioligand binding analysis (methods discussed below).
Cells were grown to 90% confluence, rinsed twice with 1×PBS and stored at −80° C. until further use. To prepare crude cellular membrane fractions, dishes were removed from −80° C. and thawed at room temperature for 5 min. Once thawed, cells were lysed with ice-cold homogenization buffer (50 mM Tris, 1 mM EDTA, 3 mM MgCl2) and gently scraped from the dish. Total cell lysates from 3-5 dishes were collected on ice in 3 ml of ice-cold homogenization buffer. Cells were homogenized at 6,500 rpm (PRO Scientific, Oxford, Conn.) twice for 10 sec and centrifuged at 11,500 rpm for 20 min at 4° C. Supernatants were discarded and cell pellets were resuspended in homogenization buffer and triturated 10 times in ice-cold homogenization buffer. Crude cellular membrane homogenates were stored at −80° C. until further use. On the day of experiments, frozen homogenates were thawed at room temperature, gently triturated 10 times and subsequently dounce homogenized in a 7 ml glass tissue grinder (Wheaton Science Products, Millville, N.J.) by 5 strokes while on ice. […]

DBT tumors = assay: Lymphocyte and brain macrophage invasion of DBT tumors implanted in mouse brain; type: in vivo, mice (BALB/c); details: daily i.p. (40 mg/Kg per FIG. 7), tumors implanted three weeks in mouse brain
Procedure: Effect of JWH-451 on the immune cell invasion of syngenic mouse model of astrocytomas tumors (mouse astrocytoma cell implanted into the brain of wild type mice hosts with intact immune systems) was measured. Briefly, mice (BALB/c, 8 week-old, male, Charles River) were used for this study and housed under specific-pathogen-free conditions for at least one week prior to surgery. Twenty-four hours before surgery, 5×10^6 DBT cells were harvested in 10 ml of DMEM supplemented with 10% heat-inactivated FBS, 10 U/ml penicillin and 10 μg/ml streptomycin and seeded in T75 cm^2 cell culture flasks (one flask per mouse). Just before surgery, cells from one flask were detached with trypsin-EDTA, recovered in DMEM supplemented with 10% heat-inactivated FBS, centrifuged/rinsed twice with MEM (serum free) and resuspended at 10^6 cells/u1 of ice-cold MEM (ready for injection). Mice were anesthetized with ketamine/xylazine (given […] i.p., 130 mg/kg ketamine/8.8 mg/kg xylazine) and placed in a stereotactic instrument (David Kopf Instruments, CA) on an isothermal pad (Deltaphase®, Braintree Scientific, Inc, Braintree, Mass.). After midline incision of the scalp, a 25-G needle was used to perform a craniostomy at 2 mm cranial from bregma and 1.5 mm left lateral. […]

U251 flank tumors = U251 flank tumors in nude mice, tumor growth; type: in vivo
Procedure: Nude mice that had been implanted with U251 flank tumors were treated with a daily regimen of JWH-451. This experiment was performed as follow: 10^6 U251 cells were implanted in the flanks of nude mice and the tumor was allowed to grow until it reached a size of 250 mm^3, at which point the mice were enrolled in daily treatment. Tumor growth was then measured and expressed as a function of initial tumor size.

T1 sequence (P47936 whole entry): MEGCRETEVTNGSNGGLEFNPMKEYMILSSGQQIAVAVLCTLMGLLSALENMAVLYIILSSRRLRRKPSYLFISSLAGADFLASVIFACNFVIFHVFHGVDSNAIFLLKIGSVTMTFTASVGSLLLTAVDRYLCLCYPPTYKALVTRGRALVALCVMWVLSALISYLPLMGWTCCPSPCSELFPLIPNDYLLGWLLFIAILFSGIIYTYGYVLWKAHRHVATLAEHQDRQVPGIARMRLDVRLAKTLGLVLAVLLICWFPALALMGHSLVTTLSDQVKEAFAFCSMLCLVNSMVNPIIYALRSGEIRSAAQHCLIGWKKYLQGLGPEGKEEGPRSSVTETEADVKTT

## CCn1c(C)c(C(=O)c2ccc(C)c3ccccc23)c2ccccc21 [JWH-451, 1-Ethyl-2-methyl-3-(4-methyl-1-napthoyl)indole]
CB2; FIG. 2
  competition for [3H]-CP55940 binding at CB2: does not
CB2; relative to WIN55212-2
  lower affinity at CB2 receptors than WIN55212-2: 100 fold
DBT tumors
  brain macrophage density / number invading DBT tumors: two fold increase
  lymphocyte density / number invading DBT tumors: two fold increase
U251 flank tumors; daily i.p. injection 15 mg/Kg, U251 flank tumors, nude mice
  tumor growth in vivo: significantly reduced tumor growth
U251 flank tumors; daily i.p. injections 5 mg/Kg (FIG. 5 legend), compared to controls
  growth of U251 gliomas implanted in the flanks of nude mice: inhibits the growth
